The source of these data is patent US20200405700A1 (priority 2019, published 2020).

The nature of the series: Aerodynamic particle size distribution on Next Generation Impactor (NGI). The class given is physicochemical. The following applies: sample 14 sprayed by soft mist inhaler, NGI at 30 L/min. On the procedure: Sample 14 was sprayed by a soft mist inhaler. Aerodynamic particle size distribution of droplets of sample 14 was measured on a Next Generation Impactor (NGI). Next Generation Impactor operated at a flow rate of 30 L/min was used for determination of particle size distribution. For each of the impactor experiments, the impactor collection stages were coated with a silicone oil. The particle size distribution is expressed in terms of mass median aerodynamic diameter (MMAD) and Geometric Standard Deviation (GSD).

SMILES strings stand for the structures.

Regarding `O=C(O[C@H]1C[N+]2(CCCOc3ccccc3)CCC1CC2)C(O)(c1cccs1)c1cccs1.[Br-]` [Aclidinium bromide, 3(R)-(2-hydroxy-2,2-dithien-2-ylacetoxy)-1-(3-phenoxypropyl)-1-azoniabicy-clo[2.2.2]octane bromide], the “MMAD (mass median aerodynamic diameter)” value was determined as 4.49 μm.
